# Laboratory results taken from US8575103B2, “Peptides and methods for inhibiting G alpha protein signaling” (The Board of Trustees of the University of Illinois, priority 2009, dated 2013).
# Entries after “also recorded” stand apart in the source; their conditions may differ. Where two headings read alike, the source gives them in different places. Where no end group is shown, it is not given here. The star is where a group is joined. Myristoyl = CCCCCCCCCCCCCC(=O)*
# Legend:
# CD1 mice = experiment: bleeding time in mice after intravenous administration; format: in vivo; settings: 100 μl of 3.7 mM intravenously via tail vein, tail cut five minutes after administration
# Description: Briefly, CD1 mice (25 grams) were anesthetized with sodium pentobarbital, and either 100 μl of vehicle or 100 μl of a vehicle solution containing 3.7 mM of each peptide or aspirin was administered intravenously via the tail vein. Five minutes following administration, the tail was cut 0.5 cm from the tip and immersed in PBS buffer (pH 7.4; 37EC). Cessation of bleeding was observed visually and the total bleeding time was recorded.
# α11bβ3 integrin [1] = biological target: T1, α11bβ3 integrin (Homo sapiens, UniProt P05106+P08514+Q9Y490); experiment: peptide affinity column with solubilized human platelets, western blot for α11bβ3; format: binding; settings: immunoblot, bands at 130 kD and 115 kD
# T1 construct: detected two bands, one at 130 kD and the other at 115 kD in solubilized human platelets; endogenous in cells; host or cells: solubilized human platelets
# From the text: (§1) On this basis, subsequent experiments examined whether G13SR2pep peptide (SEQ ID NO:5) does indeed directly interact with α11bβ3 and/or one of its associated proteins in human platelets. In this respect, platelet α11bβ3 integrin is known to exist in a complex with two cytoplasmic proteins, i.e., talin and kindlin-3 (Tadokoro, et al. (2003) Science 302:103-6; Moser, et al. (2008) Nature Med. 14:325-30). To determine whether G13SR2pep, (SEQ ID NO:5) interacts with any of these proteins (or with the entire α11bβ3, talin, kindlin-3 complex), peptide affinity columns using G13SR2pep (SEQ ID NO:5) were employed. The affinity purified protein(s) from solubilized human platelets that specifically bound to the G13SR2pep peptide were eluted, and analyzed by western blot for α11bβ3 integrin, talin and kindlin-3. In similar experiments, the eluates from a peptide column using the G13SR2-Random Peptide (SEQ ID NO:9) were also analyzed. Immunoblot analysis with the α11bβ3 antibodies (Abcam) detected two bands, one at 130 kD and the other at 115 kD in solubilized human platelets as well as in the elution fraction obtained from the G13SR2pep (SEQ ID NO:5) affinity column. […] This was supported by similar experiments using talin antibodies and the kindlin 3 antibody (Abcam).
# talin = biological target: T2, talin (Homo sapiens, UniProt Q9Y490); experiment: peptide affinity column with solubilized human platelets, western blot for talin; format: binding; settings: solubilized human platelets, immunoblot; whole talin (220 kD), talin head domain (47 kD)
# T2 construct: also purified whole talin (220 kD), the talin head domain (47 kD) and kindlin 3 (72 kD); endogenous in cells; host or cells: solubilized human platelets
# From the text: as §1
# Thus, the binding of G13SR2pep (SEQ ID NO:5) to the talin head domain serves as the basis for the ability of G13SR2pep to inhibit α11bβ3 integrin activation and platelet aggregation. As such, peptides or specific compounds fashioned to mimic or modify the switch region interaction with talin, α11bβ3 integrin or other α11bβ3 integrin-associated proteins would have profound effects on thrombosis and other integrin-linked disease processes.
# kindlin-3 = biological target: T3, kindlin-3 (Homo sapiens, UniProt Q86UX7); experiment: peptide affinity column with solubilized human platelets, western blot for kindlin-3; format: binding; settings: immunoblot, kindlin 3 (72 kD)
# T3 construct: also purified whole talin (220 kD), the talin head domain (47 kD) and kindlin 3 (72 kD); endogenous in cells; host or cells: solubilized human platelets
# From the text: as §1
# human platelets [2] = experiment: human platelet aggregation in platelet rich plasma (PRP); format: cell-based
# human platelets [3] = experiment: as above; format: cell-based; settings: for effect on human platelet aggregation induced by U46619 (TP): 0.5 μM U46619
# Description: Trace (a) is control data from human platelet rich plasma (PRP) incubated with 500 μM of the Random Peptide (Myr-Leu-Ile-Arg-Pro-Tyr-Leu-His-Arg-Ala-Thr-Lys-Glu-Gly; SEQ ID NO:6), prior to stimulation with 15 μM of the PAR1 receptor agonist TRAP1. Trace (b) depicts data wherein PRP was treated with 30 μM Myr-G13SR1pep-2 prior to stimulation with 15 μM TRAP1. Trace (c) depicts data wherein PRP was treated with 50 μM Myr-G13SR1pep-2 prior to stimulation with 15 μM TRAP1. Trace (d) is control data showing PRP treated with 500 μM of the Random Peptide (SEQ ID NO:6) prior to stimulation with the 0.5 μM thromboxane receptor agonist U46619. Trace (e) depicts data wherein PRP was treated with 500 μM Myr-G13SR1pep-2 prior to stimulation with 0.5 μM U46619. Trace (f) is control data showing PRP treated with 500 μM of the Random Peptide (SEQ ID NO:6) prior to stimulation with 10 μM of the P2Y1/P2Y12 receptor agonist ADP. […] Trace (h) depicts control data showing PRP treated with 500 μM of the Random Peptide (SEQ ID NO:6) prior to stimulation with 40 μM of the PAR4 receptor agonist TRAP4. Trace (i) depicts data wherein PRP was treated with 500 μM Myr-G13SR1pep-2 prior to stimulation with 40 μM TRAP4.
# Trace (a) depicts control data showing PRP treated with 500 μM of the Random Peptide (Myr-Gln-Arg-Ile-Arg-Phe-Cys-Ser-Glu-Gly-Val-Glu-Lys-Gly-His-Trp-Asn-Arg; SEQ ID NO:7) prior to stimulation with 15 μM of the PAR1 receptor agonist TRAP1. Trace (b) depicts data wherein PRP was treated with 500 μM Myr-GqSR2pep prior to stimulation with 15 μM TRAP1. Trace (c) is control data showing PRP treated with 500 μM Random Peptide (SEQ ID NO:7) prior to stimulation with the 0.5 μM of the thromboxane receptor agonist U46619. Trace (d) depicts data wherein PRP was treated with 50 μM Myr-GqSR2pep, prior to stimulation with 0.5 μM U46619. Trace (e) depicts data wherein PRP was treated with 150 μM Myr-GqSR2pep prior to stimulation with 0.5 μM U46619. Trace (f) is control data showing PRP treated with 500 μM Random Peptide (SEQ ID NO:7) prior to stimulation with 10 μM ADP. Trace (g) depicts data wherein PRP was treated with 50 μM Myr-GqSR2pep prior to stimulation with 10 μM ADP. Trace (h) depicts data wherein PRP was treated with 150 μM Myr-GqSR2pep prior to stimulation with 10 μM ADP. Trace (i) is control data showing PRP treated with 500 μM Random Peptide (SEQ ID NO:7) prior to stimulation with 40 μM of the PAR4 receptor agonist TRAP4. Trace (j) depicts data wherein PRP was treated with 150 μM Myr-GqSR2pep prior to stimulation with 40 μM of TRAP4.
# Trace (a) is control data showing PRP treated with 500 μM of the Random Peptide (Myr-Gly-Ile-His-Glu-Trp-Glu-Val-Gly-Ser-Phe-Lys-Gly-Cys-Gln-Lys-Arg-Arg; SEQ ID NO:8) prior to stimulation with 15 μM of the PAR1 receptor agonist TRAP1. Trace (b) depicts data wherein PRP was treated with 500 μM Myr-GiSR2pep prior to stimulation with 15 μM TRAP1. Trace (c) is control data showing PRP treated with 500 μM Random Peptide (SEQ ID NO:8) prior to stimulation with the 0.5 μM of the thromboxane receptor agonist U46619. Trace (d) depicts data wherein PRP was treated with 500 μM Myr-GiSR2pep prior to stimulation with 0.5 μM U46619. Trace (e) is control data showing PRP treated with 500 μM Random Peptide (SEQ ID NO:8) prior to stimulation with 10 μM ADP. Trace (f) depicts data wherein PRP was treated with 150 μM Myr-GiSR2pep, prior to stimulation with 10 μM ADP. Trace (g) depicts data wherein PRP was treated with 500 μM Myr-GiSR2pep prior to stimulation with 10 μM ADP. Trace (h) is control data showing PRP treated with 500 μM Random Peptide prior (SEQ ID NO:8) to stimulation with 40 μM of the PAR4 receptor agonist TRAP4. Trace (i) depicts data wherein PRP was treated with 500 μM Myr-GiSR2pep prior to stimulation with 40 μM of TRAP4 […]
# human platelets [4] = settings: Huang, et al. (2007) J. Biol. Chem. 282:10210-10222; cited from earlier work
# α11bβ3 integrin [5] = experiment: platelet α11bβ3 integrin activation, FITC-PAC1 antibody binding by flow cytometry; format: cell-based, human; settings: single substitution Arg232 to Ala versus parent G13SR2pep
# Description: The platelet count in human PRP was adjusted to 1×10^6 platelets/ml. The platelets were then labeled with FITC-conjugated PAC1 antibody against activated α11bβ3 integrin, and the samples were analyzed by flow cytometry in a Beckman Coulter CyAn II Flow Cytometer. Trace (a) depicts resting platelets labeled with FITC-PAC-1 antibody. Trace (b) depicts platelets stimulated with 0.5 μM U46619 and labeled with FITC-PAC1 antibody. Trace (c) depicts platelets incubated with 500 μM of the Random Peptide (SEQ ID NO:9), followed by 0.5 μM U46619 stimulation and FITC-PAC1 labeling. Trace (d) depicts platelets incubated with 150 μM of the G13SR2pep, followed by 0.5 μM U46619 stimulation and FITC-PAC1 labeling.
# Subsequent experiments examined the effect of G13SR2pep, (SEQ ID NO:5) on human platelet α11bβ3 integrin activation as measured by FITC-PAC-1 antibody binding.
# [6] = PRP, 500 μM peptide, 15 μM TRAP1
# [7] = PRP, 500 μM peptide, 40 μM TRAP4
# T2 sequence (Q9Y490 1-433): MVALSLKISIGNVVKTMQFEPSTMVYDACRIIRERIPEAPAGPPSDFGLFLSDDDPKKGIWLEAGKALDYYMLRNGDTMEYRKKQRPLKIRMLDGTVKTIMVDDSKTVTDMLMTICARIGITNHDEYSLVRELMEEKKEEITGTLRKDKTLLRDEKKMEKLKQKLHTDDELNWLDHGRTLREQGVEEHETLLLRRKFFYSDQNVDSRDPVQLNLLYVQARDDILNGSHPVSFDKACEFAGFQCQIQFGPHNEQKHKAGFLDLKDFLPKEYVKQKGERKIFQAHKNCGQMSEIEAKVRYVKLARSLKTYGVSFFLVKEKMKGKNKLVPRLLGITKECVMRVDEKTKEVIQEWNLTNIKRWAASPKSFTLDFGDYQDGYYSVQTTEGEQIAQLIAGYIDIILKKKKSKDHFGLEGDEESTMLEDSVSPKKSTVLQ
compound,measurement,setting,value
"CC(=O)Oc1ccccc1C(=O)O [ASA, aspirin, reference compound]",bleeding time,CD1 mice,increase
"GFDEWEVSFKGCQRRSR [Random Peptide (SEQ ID NO:9), random peptide control for G13SR2pep, reference compound]",α11bβ3 in affinity column eluate (interaction with peptide),α11bβ3 integrin [1],did not reveal the presence
same,talin in affinity column eluate,talin,did not reveal the presence
same,kindlin 3 in affinity column eluate,kindlin-3,did not reveal the presence
same,inhibition of human platelet aggregation stimulated by U46619,"human platelets [2]; PRP, 75-150 μM G13SR2pep (Random Peptide 500 μM), 0.5 μM U46619",without effect
same,inhibition of human platelet aggregation stimulated by ADP,"human platelets [2]; PRP, 75-150 μM G13SR2pep (Random Peptide 500 μM), 10 μM ADP",without effect
same,inhibition of human platelet aggregation stimulated by TRAP1,"human platelets [2]; PRP, 75-150 μM G13SR2pep (Random Peptide 500 μM), 15 μM TRAP1",without effect
same,inhibition of human platelet aggregation stimulated by TRAP4,"human platelets [2]; PRP, 75-150 μM G13SR2pep (Random Peptide 500 μM), 50 μM TRAP4",without effect
"Myr-Leu-Leu-Ala-Arg-Arg-Pro-Thr-Ala-Gly-Ile-His-Glu-Tyr (Myristoyl-LLARRPTAGIHEY) [Myr-G13SR1pep-2, myristoylated Gα13 switch region 1 peptide, Lys changed to Ala]",effect on human platelet aggregation induced by U46619 (TP),"human platelets [3]; PRP, 500 μM peptide",no measurable effect
same,effect on human platelet aggregation induced by ADP,"human platelets [3]; PRP, 500 μM peptide, 10 μM ADP",no measurable effect
same,effect on human platelet aggregation induced by TRAP1 (PAR1),human platelets [3]; [6],no measurable effect
same,effect on human platelet aggregation induced by TRAP4 (PAR4),human platelets [3]; [7],no measurable effect
same,inhibition of PAR1-induced human platelet aggregation,"human platelets [3]; PRP, 30-50 μM peptide, 15 μM TRAP1",progressive inhibition; also recorded: blocked
same,potency relative to the original peptide (Myr-G13SR1pep) for inhibition of PAR1-induced human platelet aggregation,human platelets [3]; human PRP,ten-fold increased potency
same,bleeding time,CD1 mice,increased bleeding times; also recorded: substantially increases
"Myr-Leu-Leu-Ala-Arg-Arg-Pro-Thr-Lys-Gly-Ile-His-Glu-Tyr (Myristoyl-LLARRPTKGIHEY) [Myr-G13SR1pep, original permeable peptide representing SR1 of the Gα13 subunit (Huang, et al. 2007)]",inhibition of PAR1-induced human platelet aggregation,human platelets [4],selectively and dose-dependently inhibited
"Myr-Val-Gly-Gly-Gln-Arg-Ser-Glu-Arg-Arg-Lys-Trp-Ile-His-Cys-Phe-Glu-Asn (Myristoyl-VGGQRSERRKWIHCFEN) [Myr-GqSR2pep, myristoylated Gαq switch region 2 peptide]",effect on human platelet aggregation induced by TRAP1 (PAR1),human platelets [3]; [6],ineffective
same,inhibition of human platelet aggregation induced by PAR4 receptors,"human platelets [3]; PRP, 50-150 μM peptide, 40 μM TRAP4",dose-dependent inhibition
same,inhibition of human platelet aggregation induced by TP receptors,"human platelets [2]; PRP, 50-150 μM peptide, 0.5 μM U46619",dose-dependent inhibition
same,inhibition of human platelet aggregation induced by ADP receptors,"human platelets [2]; PRP, 50-150 μM peptide, 10 μM ADP",dose-dependent inhibition
"Myr-Val-Gly-Gly-Gln-Arg-Ser-Glu-Arg-Lys-Lys-Trp-Ile-His-Cys-Phe-Glu-Gly (Myristoyl-VGGQRSERKKWIHCFEG) [Myr-Gi SR2pep, myristoylated Gαi switch region 2 peptide]",effect on human platelet aggregation induced by U46619 (TP),"human platelets [3]; PRP, 500 μM peptide",without affecting
same,effect on human platelet aggregation induced by TRAP1 (PAR1),human platelets [3]; [6],without affecting
same,effect on human platelet aggregation induced by TRAP4 (PAR4),human platelets [3]; [7],without affecting
same,inhibition of ADP-induced aggregation,"human platelets [3]; PRP, 150-500 μM peptide, 10 μM ADP",dose-dependent (150-500 μM) inhibition
"RSERKRWFECFD [G13SR2pep-truncated, truncated version of the G13 Switch Region 2 peptide]",inhibition of human platelet aggregation compared with full length G13SR2pep,"human platelets [2]; PRP, 150 μM peptide, 15 μM TRAP1 or 0.5 μM U46619 (FIG. 5)",inhibited human platelet aggregation with the same potency
"VGGQRSERKAWFECFDS [G13SR2mutant pep, G13SR2pep with single substitution at amino acid 232 from Arg to Ala, reference compound]",ability to block integrin activation,α11bβ3 integrin [5],completely eliminated the ability
same,ability to block platelet activation,human platelets [2]; single substitution Arg232 to Ala versus parent G13SR2pep,completely eliminated the ability
